Source: patent publication US20260206756A1, “COMPOUNDS AND METHODS OF TREATING OR PREVENTING A BACTERIAL INFECTION IN A PLANT” (Ohio State Innovation Foundation, priority 2023, published 2026)
Converted amounts (≈) assume the structure as drawn. Read-outs that look alike come from different tables or passages of the source.

What was measured:
[1] = test system: Pseudomonas syringae pv. syringae (Pss) SM109-18; assay: Dose-response assay (MIC/MBC) in M9 minimal broth; details: 48 h
Description: (§1) Primary screening of 4,182 SMs was conducted using a high throughput screening method to identify SMs that inhibited the growth of Pss SM1042-14R strain. A fresh bacterial culture of SM1042-14R was grown in M9 minimal broth in a shaking incubator (180 rpm) for 12 h at 28° C. The bacterial culture was normalized to a final optical density (OD600) of 0.05 (c.a., 8.0×10^7 CFU/ml) using a Genesys 20 spectrophotometer (Thermo Scientific, Rockford, IL, USA). In a sterile flat-bottom 96-well plate, 98 μl of the normalized bacterial suspension was challenged with 2 μl of SMs (final concentration of 200 μM). Controls were bacteria challenged with 2% DMSO (positive control; μc+), 50 μg/ml kanamycin (negative control; μc−), or M9 broth alone (blank control). The plate was incubated in a Sunrise Tecan kinetic microplate reader (Tecan Group Ltd., San Jose, CA, USA) for 48 h at 28° C. OD600 was measured every 30 min.
(§2) The plate was agitated for 15 s at 180 rpm before reading the OD600. Growth inhibition of SM1042-14R by the SMs was calculated using the following formula: % of inhibition=(μc+−X)/(μc+−μc−)×100, where μc+ and μc− is the average final OD600 of the positive and negative controls, respectively, and X is the final OD600 of each of the bacterial culture treated with a designated SM. After the 48 h of incubation with the SMs at 28° C., the viability of the bacterial culture was assessed by plating 5 μl of the culture on YDC (Yeast Dextrose Carbonate) agar medium, incubating the plate at 28° C. and monitoring any bacterial colonies on the plate after 48 h.
(§3) A dose-response assay was conducted with the 15 PCs identified during the primary screening against 10 Pss strains including the model strain, SM1042-14R. The dose-response assay was conducted as described above with concentrations of PCs ranging from 3.125 to 500 μM. Pss treated with non-amended M9 minimal media, 2% DMSO, or 50 μg/ml kanamycin were used as controls. The plate was incubated in a Sunrise Tecan kinetic microplate reader for 48 h at 28° C. The percentage of inhibition and cell viability were determined as described above.

[2] = test system: Pseudomonas syringae pv. syringae (Pss) SM1038-14; assay: Dose-response assay (MIC/MBC) in M9 minimal broth; details: 48 h
Description: (§4) Minimum inhibitory concentration (MIC) and minimum bactericidal concentration (MBC) of the 15 PCs against 10 Pss strains. A dose-response assay was conducted with the 15 PCs identified during the primary screening against 10 Pss strains including the model strain, SM1042-14R. The dose-response assay was conducted as described above with concentrations of PCs ranging from 3.125 to 500 μM. Pss treated with non-amended M9 minimal media, 2% DMSO, or 50 μg/ml kanamycin were used as controls. The plate was incubated in a Sunrise Tecan kinetic microplate reader for 48 h at 28° C. The percentage of inhibition and cell viability were determined as described above.

[3] = test system: Pseudomonas syringae pv. syringae (Pss) SM51-19; assay: Dose-response assay (MIC/MBC) in M9 minimal broth; details: 48 h
Description: as §4

[4] = test system: Pseudomonas syringae pv. syringae (Pss) SM1030-14; assay: Dose-response assay (MIC/MBC) in M9 minimal broth; details: 48 h
Description: as §1, §2, §3

[5] = test system: Pseudomonas syringae pv. syringae (Pss) SM155-18; assay: Dose-response assay (MIC/MBC) in M9 minimal broth; details: 48 h
Description: as §1, §2, §3

[6] = test system: Pss SM1042-14R on pepper seedlings; type: in vivo, Pseudomonas syringae pv. syringae; details: 200 μM, 7 dpi; for Pseudomonas leaf spot incidence, Curative application / Pseudomonas leaf spot incidence, Preventative application: streptomycin 200 μg/ml, CuSO4 200 μM
[7] = test system: Pseudomonas syringae pv. syringae (Pss) SM04-2018-04; assay: Dose-response assay (MIC/MBC) in M9 minimal broth; details: 48 h
Description: as §4

[8] = test system: Pseudomonas syringae pv. syringae (Pss) SM914-13; assay: Dose-response assay (MIC/MBC) in M9 minimal broth; details: 48 h
Description: as §4

[9] = test system: Pseudomonas syringae pv. syringae (Pss) SM1031-14; assay: Dose-response assay (MIC/MBC) in M9 minimal broth; details: 48 h
Description: as §1, §2, §3

[10] = test system: Pseudomonas syringae pv. syringae (Pss) SM156-18; assay: Dose-response assay (MIC/MBC) in M9 minimal broth; details: 48 h
Description: as §4

[11] = test system: Pseudomonas syringae pv. syringae (Pss) SM1042-14R; assay: Dose-response assay (MIC/MBC) in M9 minimal broth; details: strain SM1042-14R, 48 h, 28° C.
Description: as §1, §2, §3

ten Pss strains = assay: Dose-response assay (MIC/MBC), summary across ten Pss strains; type: cell-based, Pseudomonas syringae pv. syringae; details: Pseudomonas syringae; across the different Pss strains; M9 broth; read-out: MICs and MBCs
[12] = test system: Pss SM1042-14R in infested pepper seeds; assay: Antimicrobial efficacy on pepper seeds artificially infested with Pss; type: in vivo, Pseudomonas syringae pv. syringae; details: 30 dpi, 200 μM, 20 min soak
Description: Antimicrobial efficacy of ten selected PCs on pepper seeds artificially infested with Pss SM1042-14R. ‘California Wonder’ pepper seeds were used for artificial infestation with Pss SM1042-14R and PC treatment. Inoculum of Pss SM1042-14R was prepared by growing SM1042-14R in M9 minimal medium overnight as described above. The OD600 was adjusted to 0.1; approximately 1×10^8 CFU/ml. The adjusted inoculum (45 ml of inoculum for 4 g seeds) was transferred to a sterile glass beaker and placed in a Nucerite desiccator (Nalge Sybron, Milwaukee, WI, USA). Seeds were vacuum infiltrated with inoculum at 15 PSI for 5 min. Infested seeds were air-dried in a laminar flow hood at room temperature for 12 h. The dried seeds were transferred to 5 ml sterile tubes and soaked in 1 ml of PCs (200 μM) diluted in sterile water for 20 min. The seeds were air-dried again. Seed aliquots were collected at 1, 3-, 10-, 20-, and 30-days post infestation (dpi, 10 seeds per treatment group per time point). Bacterial populations were estimated by macerating five batches of two seeds per treatment group in 400 μl of 1×PBS in a Whirl Pak bag. […] This was performed twice.

Pss SM1042-14R = assay: Antimicrobial resistance studies (single step and sequential passage); details: Pseudomonas syringae, SM104214R
Description: Antimicrobial resistance studies. […] For the single-step resistance, M9 agar medium amended with 2×MBC of PCs was prepared in a sterile 24-well plate. An overnight culture of SM1042-14R was normalized to OD600 of 1.0 (approximately 10^9 CFU/well). In each of the wells containing different PCs, 50 μl of the adjusted bacterial culture was plated onto the 24 well agar plate. The plate was sealed using parafilm and incubated in the dark at 28° C. for 15 days. After 15 days, any colonies that grew on the 24-well plate were evaluated for MIC and MBC as described above. The experiment was conducted with three replicates per treatment group. SM1042-14R plated on non-amended M9 agar medium, 2% DMSO or 50 μg/ml kanamycin were used as controls.
For sequential passage (sublethal dose) resistance assay, SM1042-14R was grown in M9 minimal broth and adjusted to OD600 of 0.05 (approximately 10^7 CFU/ml). In a 96-well plate, 98 μl of the adjusted bacterial culture was transferred and 0.75×MBC of PC (concentration that allows approximately 70% growth inhibition) was added into the wells. Plates were incubated at 28° C. with 150 rpm shaking for 24 h in the dark. After incubation, cells were centrifuged, the pellet was resuspended in fresh M9 broth amended with 0.75×MBC of PC and grown as described above. […] After 15 passages, MIC, and MBC of the PCs to SM1042-14R were determined as described above. […]

[13] = strain SM109-18, M9 broth, 28° C.
[14] = strain SM1038-14, M9 broth, 28° C.
[15] = strain SM51-19, M9 broth, 28° C.
[16] = strain SM1030-14, M9 broth, 28° C.
[17] = strain SM155-18, M9 broth, 28° C.
[18] = strain SM04-2018-04, M9 broth, 28° C.
[19] = strain SM914-13, M9 broth, 28° C.
[20] = strain SM1031-14, M9 broth, 28° C.
[21] = strain SM156-18, M9 broth, 28° C.
[22] = preventative (1 day prior to inoculation)

Compound	MBC ([1]; Pseudomonas syringae) [µM]	MIC ([1]; Pseudomonas syringae) [µM]	MBC ([2]; Pseudomonas syringae) [µM]	MIC ([2]; Pseudomonas syringae) [µM]	MBC ([3]; Pseudomonas syringae) [µM]	MIC ([3]; Pseudomonas syringae) [µM]	MBC ([4]; Pseudomonas syringae) [µM]	MIC ([4]; Pseudomonas syringae) [µM]	MBC ([5]; Pseudomonas syringae) [µM]	MIC ([5]; Pseudomonas syringae) [µM]	Pseudomonas leaf spot incidence, Curative application [6] [%]	Pseudomonas leaf spot incidence, Preventative application [6] [%]	MBC ([7]; Pseudomonas syringae) [µM]	MIC ([7]; Pseudomonas syringae) [µM]	MBC ([8]; Pseudomonas syringae) [µM]	MIC ([8]; Pseudomonas syringae) [µM]	MBC ([9]; Pseudomonas syringae) [µM]	MIC ([9]; Pseudomonas syringae) [µM]	MBC ([10]; Pseudomonas syringae) [µM]	MIC ([10]; Pseudomonas syringae) [µM]	other results
CC1CCC(C(C)C)C(OC(=O)Cn2c[n+](CC(=O)OC3CC(C)CCC3C(C)C)c3ccccc32)C1 (stereo not drawn) [PC4]	12.5	12.5	12.5	12.5	12.5	12.5	12.5	12.5	25	12.5	100	100	25	12.5	12.5	12.5	12.5	12.5	12.5	12.5	
CCOc1ccc2nc3cc(N)ccc3c(N)c2c1 [PC7]												86									MBC [11]: 100 µM (≈ 25.3 µg/mL); MIC [11]: 50 µM (≈ 12.7 µg/mL); MBC [1, 13]: 100 µM (≈ 25.3 µg/mL); MIC [1, 13]: 50 µM (≈ 12.7 µg/mL); MBC [2, 14]: 100 µM (≈ 25.3 µg/mL); MIC [2, 14]: 50 µM (≈ 12.7 µg/mL); MBC [3, 15]: 200 µM (≈ 50.7 µg/mL); MIC [3, 15]: 50 µM (≈ 12.7 µg/mL); MBC [4, 16]: 100 µM (≈ 25.3 µg/mL); MIC [4, 16]: 50 µM (≈ 12.7 µg/mL); MBC [5, 17]: 100 µM (≈ 25.3 µg/mL); MIC [5, 17]: 50 µM (≈ 12.7 µg/mL); MBC [7, 18]: 100 µM (≈ 25.3 µg/mL); MIC [7, 18]: 50 µM (≈ 12.7 µg/mL); MBC [8, 19]: 50 µM (≈ 12.7 µg/mL); MIC [8, 19]: 25 µM (≈ 6.33 µg/mL); MBC [9, 20]: 100 µM (≈ 25.3 µg/mL); MIC [9, 20]: 50 µM (≈ 12.7 µg/mL); MBC [10, 21]: 100 µM (≈ 25.3 µg/mL); MIC [10, 21]: 50 µM (≈ 12.7 µg/mL)
COc1cc(CN(C)Cc2ccccc2)ccc1OCC(O)CN1CCCCCCC1 (stereo not drawn) [PC9]	200 (≈ 85.3 µg/mL)	100 (≈ 42.7 µg/mL)	200 (≈ 85.3 µg/mL)	100 (≈ 42.7 µg/mL)	200 (≈ 85.3 µg/mL)	100 (≈ 42.7 µg/mL)	200 (≈ 85.3 µg/mL)	100 (≈ 42.7 µg/mL)	200 (≈ 85.3 µg/mL)	100 (≈ 42.7 µg/mL)	71	100	200 (≈ 85.3 µg/mL)	100 (≈ 42.7 µg/mL)	200 (≈ 85.3 µg/mL)	200 (≈ 85.3 µg/mL)	200 (≈ 85.3 µg/mL)	200 (≈ 85.3 µg/mL)	200 (≈ 85.3 µg/mL)	200 (≈ 85.3 µg/mL)	MBC (ten Pss strains): 50 to 200 µM (≈ 21.3 to 85.3 µg/mL); Pss reduction compared to the DMSO group ([6]; curative (1 dpi)): 1.9±0.7 log CFU/g
Cn1cc(CNCCCn2ccnc2)c(-c2ccc(Oc3ccccc3)cc2)n1 [PC10]	200 (≈ 77.5 µg/mL)	200 (≈ 77.5 µg/mL)	200 (≈ 77.5 µg/mL)	200 (≈ 77.5 µg/mL)	200 (≈ 77.5 µg/mL)	200 (≈ 77.5 µg/mL)	200 (≈ 77.5 µg/mL)	200 (≈ 77.5 µg/mL)	200 (≈ 77.5 µg/mL)	200 (≈ 77.5 µg/mL)	71	100	200 (≈ 77.5 µg/mL)	200 (≈ 77.5 µg/mL)	200 (≈ 77.5 µg/mL)	200 (≈ 77.5 µg/mL)	200 (≈ 77.5 µg/mL)	200 (≈ 77.5 µg/mL)	200 (≈ 77.5 µg/mL)	200 (≈ 77.5 µg/mL)	reduction in Pss load in infested seeds [12]: 1.9±0.2 log CFU/g; MBC (ten Pss strains): 50 to 200 µM (≈ 19.4 to 77.5 µg/mL)
[H]/N=C(/N)N[C@H]1[C@H](O)[C@@H](O)[C@H](O[C@@H]2O[C@@H](C)[C@](O)(C=O)[C@H]2O[C@@H]2O[C@@H](CO)[C@H](O)[C@@H](O)[C@@H]2NC)[C@@H](N/C(N)=N\[H])[C@@H]1O [streptomycin]											86	71									MBC (Pss SM1042-14R; SM1042-14R colonies after the sequential passages resistance assay): > 25 µg/mL; MBC (Pss SM1042-14R; original culture from glycerol stock): 12.5 µg/mL (≈ 21.5 µM); reduction in Pss load in infested seeds [12]: 2.0±0 log CFU/g; Pseudomonas leaf spot incidence, Curative application ([6]; listed as Strep): 86%; Pseudomonas leaf spot incidence, Preventative application ([6]; listed as Strep): 71%; Pss reduction compared to the DMSO group ([6]; curative (1 dpi)): 2.2±0.5 log CFU/g; disease severity (number of lesions per two leaves) ([6]; curative (1 dpi), first trial): 24.4±18.2 lesions; disease severity (number of lesions per two leaves) [6, 22]: 88.8±62.5 lesions; reduction in Pss load compared to the DMSO group [6, 22]: 1.7±0.8 log CFU/g
